In data set [1] the test system is reniform nematode. Here is the method:
(§1) The liquid potassium azide compound was added to the soil in an aqueous solution of amounts of: 1, 2, 3, 4 and 5 mgs KN3 per kg of soil. The formulation used for this experiment 1% KN3 and 0.5% sodium lauryl sulfate. Soil samples were collected one week after the application of the KN3 solution for nematological analysis using such techniques as the salad bowl incubation technique.

The test system of data set [2] is microbivorous nematodes. The following applies: 1-5 mgs KN3 per kg of soil, one week after application. Here is the method: as §1
For data set [3], the system named is weeds.
Data set [4] relates to root-knot nematode. Particulars: applications of ≧2 mgs KN3/Kg soil, 10 days after application. Here is the method:
(§2) In this example, the soil used was from a cotton field infested with the root-knot [Meloidogyne incognita], and lance [Hoplolaimus galeatus], nematodes—each a plant parasitic specie. The soil was mixed with washed siliceous river sand (in equal parts by volume), apportioned into one kg amounts in 4 L plastic bags and placed in pots. The test solution was prepared by dissolving 0.500 gms KN3 in an aqueous solution containing 50 mls of a 10% casein [w/v] solution in 0.1N NaOH and diluting with water to a final volume of 500 mls; the solution thus contained 1 mg KN3/ml. The solution was added to soil at rates of 1, 2, 4, 6, 8, and 10 mls/Kg soil. There were for each treatment and controls [no solution], a total of 7 pots each containing 1 Kg of soil. After application of the solution, for each rate, each pot was covered with a plastic bag. The pots were placed on a greenhouse bench and were arranged in a randomized block design. After 10 days the covers were removed, soil samples were collected from each pot for nematological analyses and “Young” soybean were planted [5 seed/pot]. The resulting plants were allowed to grow for 7 weeks when they were carefully separated from the soil and growth parameters measured. The roots and final soil samples were incubated to determine nematode populations. Nematode numbers in soil and roots were determined using the salad bowl incubation technique.

Data set [5] has as its system lance nematode. Particulars: applications of ≧2 mgs KN3/Kg soil, 10 days after application. As for the experimental part:
as §2

Data set [6] has as its system beneficial microbivorous nematodes. As for the experimental part: as §2
In data set [7] the test system is "Young" soybean. The following applies: range 1-8 mgs/Kg soil; sharpest increases at 1 and 2 mgs rates; soybean grown 7 weeks. Here is the method: as §2
Data set [8] concerns weeds. An excerpt: (§3) The square microplots of 1 ft^2 [929 cm^2] and 2 feet [61 cms] deep having an open-bottom were used. Each microplot was delimited by a terra-cotta chimney flue. The soil filling the plot was a sandy loam [pH=6.2; organic matter content <1.0%; C.E.C <10 meq/100 g soil] and was infested with the nematodes: Meloidogyne incognita [root-knot], Paratrichodorus minor [stubby root], Tylenchorhynchus claytoni [stunt], and Helicotylenchus dihystera [spiral]. Weeds introduced into the plots were principally crabgrass [Digitaria sanguinalis], yellow nutsedge [Cyperus esculentum], pigweed [Amaranthus spp.], and morning glories [Ipomea spp., Jacquemontia tamnifolia].
(§4) The plots were covered with standard polyethylene [1 mil] and after 10 days the cover was removed, the number of weeds was determined, soil samples for nematological analyses were taken and each plot was planted with two 3-week old ‘Black Beauty’ eggplant [Solanum melongena] seedlings. The plants were grown for 2 months and data were collected on yield, weed infestation and nematode populations.
The source holds these as a separate data set.

The subject of data set [9] is plant parasitic nematodes.
Text: as §3, §4

Data set [10] deals with 'Black Beauty' eggplant. The following applies: eggplant grown 2 months; rates 0-5.0 g/plot.
Text: as §3, §4

In data set [11] the test system is plant parasitic nematodes. Nature of the data set: Microplot experiment, amine-protein stabilized NaN3, nematode control (Example 3). It counts as in vivo. An excerpt:
(§5) The formulation contained 5% [w/v] […] Soil in the microplots was a sandy loam [pH=6.2; organic matter content <1.0%; C.E.C <10 meq/100 g soil] infested with the nematodes: Meloidogyne incognita, Paratrichodorus minor, Tylenchorhynchus claytoni, and Helicotylenchus dihystera 1]. Weeds in the plots were principally crabgrass [Digitaria sanguinalis], yellow nutsedge [Cyperus esculentum], pigweed [Amaranthus spp.], and morning glories [Ipomea spp., Jacquemontia tamnifolia].
(§6) The plots were covered with standard polyethylene [1 mil] tarp immediately after application of the chemical. After 10 days the cover was removed, the number of weeds was determined, soil samples for nematological analyses were taken and each plot was planted with two 4-week old ‘Huskie’ tomato seedlings. The plants were grown for 3 months and data were collected on yield, number of fruits, weed infestation and nematode populations.

In data set [12] the test system is weeds. Nature of the data set: Microplot experiment, amine-protein stabilized NaN3, weed control (Example 3). Format: in vivo. The following applies: all but the three lowest rates of NaN3.
Text: as §5, §6

In data set [13] the test system is pepper or tomato plants. The following applies: seedlings transplanted 6 weeks after NaN3 application, 100 and 200 kg/ha.
In data set [14] the test system is root-knot nematode. The following applies: dosages of 100 and 200 kg/ha, 3 weeks after application. An excerpt: (§7) The soil was a calcareous silty clay loam with pH 7.8 and <1% organic matter. […] Each dosage rate was delivered into pre-acidified soil as well as in non-acidified and administered using 3 different water levels: 3, 10, and 15 L/m^2. Acidification was with H2SO4 to lower soil pH to less than 7.00. […] After 3 weeks the soil was uncovered and a soil sample was removed for nematological analyses and the weeds were counted.

In data set [15] the test system is coastal bermuda grass, yellow nutsedge and other weeds.
Text: as §7

Data set [16] concerns 'Huskie' tomato. The following applies: tomato grown 3 months.
Text: as §5, §6

For data set [17], the system named is "Rowden" cotton. Here is the method:
(§8) The aqueous formulation was a solution containing 1% [w/v] […] After thorough mixing, the contents of a bag were poured into 1 L capacity, 10-cm-diam cylindrical plastic pots which were then covered with standard polyethylene [[…]]. Each rate and the no treatment control was represented by 7 replications [pots] arranged in a randomized complete block design. Ten days after application of the chemical solution, the pots were uncovered and 5 seed of “Rowden” cotton [Gossypium hirsutum] were planted in each pot. The resulting plants were grown for 8 weeks. When the plants were removed after 8 weeks, soil samples were collected for nematological analyses. The shoots and roots of the plants were weighed and the root systems were examined and indexed for disease severity symptoms. Following examination, the roots were incubated to determine nematode populations.

In data set [18] the test system is plant parasitic nematodes (cotton wilt complex Fusarium oxysporum f sp. vasinfectum×Meloidogyne incognita). Particulars: all NaN3 dosages, 10-100 mgs a.i./kg soil; 8 weeks after planting. Here is the method: as §8
Where [19] appears, read: plots treated with ≦2.0 g NaN3 rates.
[20] abbreviates: three highest rates (3.0, 4.0, 5.0 g/plot).

Read-outs that look alike come from different tables or passages of the source. A value given as a limit tells only on which side of the number the result lay.

Turning to `[K+].[N-]=[N+]=[N-]` [KN3, potassium azide], the “numbers of reniform nematode in response to increasing KN3” value in data set [1] (1-5 mgs KN3 per kg of soil, one week after application) is recorded as “declined exponentially”. In addition, the “control of the reniform nematodes” value in data set [1] (rates of 4-5 mg of KN3 per kg of soil) was approximately 100%. In addition, in data set [2], the “numbers of microbivorous nematodes in response to increasing KN3” value is listed as “declined in an almost linear fashion”. Moreover, the number of weeds entry in data set [3] (KN3 rates of 20-200 mg/kg of soil) is “declining in proportion to rates used”. The “control rates for weeds” value in data set [3] (rates of greater than 140 mg/kg of soil) is listed as “over 80%”. The “root-knot nematode population in the preplant sample” value in [4] is “eliminated”. In addition, the “lance nematode population in the preplant sample” value in [5] was “eliminated”. In data set [6] (1 and 2 mg application rates), the “numbers of beneficial microbivorous nematodes” value is recorded as “pronounced stimulation”. Also, in data set [6] (application rates <6 KN3/Kg, final soil), the “populations of beneficial microbivorous nematodes” value is reported as “not adversely affected”. Besides, in data set [6] (in vivo), the “application rate necessary to significantly reduce or eliminate microbivorous nematodes” value is given as more than 4 mgs/Kg soils. Also, the “plant response as measured by the weights of shoots and roots” value in data set [7] is “positive and pronounced”.
Regarding `[N-]=[N+]=[N-].[Na+]` [NaN3, sodium azide], the weeds at planting entry in data set [8] (10 days after drench, all but the two lowest rates of NaN3) is given as “no weeds”. Further, the “weeds at the end of the experiment” value in [8] (setting [19]) is “significant populations”. Also, the “weed infestation at the end of the experiment” value in data set [8] (setting [20]) was “no significant weed infestation”. In addition, in [9] (10 days after drench, plots treated with 0.5-5.0 g sodium azide/plot, control plots infested with all species), the “nematodes in planting time soil samples” value is recorded as “no nematodes”. The “plant parasitic nematodes at the end of the experiment” value in data set [9] (setting [19]) is “significant populations”; in data set [9] (setting [20]), “no plant parasitic nematodes”; in [11] (all rates of application), “no plant parasitic nematodes”. Moreover, the “yield and number of fruits” value is “increased directly in response to NaN3 rates from 0-1.5 g/plot and leveled out” in data set [10]; “increased directly in response to NaN3 rates from 0-4 g/plot” in [16]. Moreover, the “nematodes in soil samples at planting” value in data set [11] (10 days after drench, 0.5-5.0 g/plot, controls had significant numbers of all species) is reported as “did not contain nematodes”. Further, the “weeds at planting time” value in [12] was “no weeds”. Moreover, in data set [13], the “phytotoxicity to pepper or tomato plants” value is listed as “no evidence of phytotoxicity”. Moreover, the nematodes controlled entry in data set [14] is on record as “greater than 90%”. Also, the effectiveness against nutsedge result in data set [15] (100 and 200 kg/ha) is reported as “particularly effective”. Further, in data set [15] (dosages of 100 and 200 kg/ha, 3 weeks after application), the weeds controlled entry is given as “all weeds”. Also, the figures for the “weights of shoots and roots” value in [17] (NaN3 rates 10-60 mgs/kg soil) and in [17] (NaN3 rates ≧70 mgs/kg soil) were “Sharp increases” and “no additional weight increments”, respectively. For the same molecule, the “cotton root health [root condition index]” value in data set [17] (all NaN3 dosages, 10-100 mgs/kg soil) is given as “markedly improved”. In addition, in [18], the “plant parasitic nematodes in soil and roots” value was “eliminated from the soil and roots”.

Source of the values: US6852341B2 (priority 2000, dated 2005).
